The source of these data is patent US9624211B2, “Anti-cancer compounds” (Board of Regents, The University of Texas System, priority 2013, dated 2017).

Where two headings read alike, the source gives them in different places.

One data set deals with PC3 xenograft tumors. Nature of the data set: PC3 tumor xenograft in nude mice. The data set is classed as in vivo. The method, then:
Nude mice bearing PC3 or A549 xenograft tumors (around 100 mm^3) were administrated with vehicle or 80 mg/kg compound #25 on a daily basis. Tumor size was measured weekly with a caliper, and tumor volume was determined with the standard formula: L×W2×0.52, where L is the longest diameter and W the shortest diameter.

Data set [1] deals with p53-deficient prostate cancer cells. Nature of the data set: Cell senescence assay (SA-b-gal). The class given is cell-based. The method, then: (§1) For Skp2 inhibitor administration, 5-10×10^3 of cells with were seeded in 12 wells in triplicate, 24 h later, treated with compound #25 (refreshed every two days). Four days later, cells were harvested, stained with trypan blue, and viable cells were counted directly under the microscope using hemocytometer. For doxorubicin treatment, 8×10^3 of PC3 cells with were seeded in 12 wells in triplicate, 24 h later, treated with various dose of compound #25 in the presence or absence of 10 nM doxorubicin or 25 ng/ml cyclophosphamide for four and three days, respectively (refreshed every two days). After treatment, cells were harvested, stained with trypan blue, and viable cells were counted directly under the microscope using hemocytometer. Cellular senescence was determined by assessing SA-b-gal activity using senescence detection kit according to manufacturers' standard procedures (Calbiochem).

A short description of data set [2]: Pharmacokinetic analysis, plasma and tumor distribution. The data set is classed as in vivo, nude mice. The method, then:
FIGS. 14A-C. Skp2 inhibitor restricts cancer cell proliferation and triggers apoptosis in prostate tumor xenografts. The quantification results (FIG. 14A) and representative images (FIG. 14B) of histological analysis of Ki-67, TUNEL, Skp2 and HE staining in PC3-driven tumor xenografts. “Low” indicates tumor xenografts treated with 40 mg/kg, while “high” indicates the xenografts treated with 80 mg/kg of compound #25. Scale bar indicates 100 μm. (FIG. 14C) Pharmacokinetic analysis of compound #25. Plasma and tumor distribution following IP injection of compound #25 to nude mice bearing PC3-driven tumor xenograft are analyzed. Three mice were evaluated at each time point. Results are represented as mean values±S.D.

Data set [3] has as its target T1, Skp1/Skp2 binding interaction (Homo sapiens, UniProt Q13309).
T1 construct: made in house; host or cells: GST-Skp1: E. coli BL21; Skp2: in vitro translation
Nature of the data set: In vitro Skp2-Skp1 binding assay (GST pull-down). The method, then: For in vitro GST-Skp1 and Skp2 interaction, GST-Skp1 proteins purified from the bacterial lysates of BL21 competent cells transformed with pGEX-4X1-Skp1 using the Glutathione-Agarose beads according to the manufacturer's standard procedures. The GST-Skp1 proteins bound to glutathione Sepharose beads (Amersham Biosciences) were then incubated with the in vitro translated [35^S]-Skp2 for 2 hours at 4° C. in the interaction buffer with or without compound #25 (20 mM HEPES, PH 7.9, 150 mM KCl. 5 mM EDTA, 0.5 mM DTT, 0.1% (v/v) Nonidet p-40, 0.1% (w/v) BSA, 1 mM PMSF, and 10% Glycerol), washed by the NETN buffer (20 mM Tris, pH 8.0, 100 mM NaCl, 6 mM MgCl2, 1 mM EDTA, 0.5% Nonidet P-40, 1 mM DTT, 8% glycerol, 1 mM PMSF) 4 times, and subjected to 8% SDS-PAGE, followed by autoradiography.
Below are the original lead compound and 11 similar compounds that were tested for their ability to block the Skp1/Skp2 binding interaction in an in vitro assay. The quantification was made on western blot/images, and the percentages represent the amount of intact Skp1/Skp2 remaining after treatment. In vitro binding assays were performed. For in vitro GST-Skp1 and Skp2 interaction, GST-Skp1 proteins purified from the bacterial lysates of BL21 competent cells transformed with pGEX-4X1-Skp1 using the Glutathione-Agarose beads were performed according to the manufacturer's standard procedures. The GST-Skp1 proteins bound to glutathione Sepharose beads (Amersham Biosciences) were then incubated with the in vitro translated [35^S]-Skp2 for 2 hours at 4° C. in the interaction buffer with or without lead compound and 11 similar compounds (20 mM HEPES, PH 7.9, 150 mM KCl. 5 mM EDTA, 0.5 mM DTT, 0.1% (v/v) Nonidet p-40, 0.1% (w/v) BSA, 1 mM PMSF, and 10% Glycerol), washed by the NETN buffer (20 mM Tris, pH 8.0, 100 mM NaCl, 6 mM MgCl2, 1 mM EDTA, 0.5% Nonidet P-40, 1 mM DTT, 8% glycerol, 1 mM PMSF) 4 times, and subjected to 8% SDS-PAGE, followed by autoradiography. The data presented in Table 1 below was obtained using the Skp1/Skp2 binding affinity assay. The quantification percentage results listed below are based on the western blot results.

A further data set concerns PC-3 cells. Description: Cell survival assay, PC-3. The data set is classed as cell-based, human. As to the method:
as §1

T1 sequence (Q13309 whole entry): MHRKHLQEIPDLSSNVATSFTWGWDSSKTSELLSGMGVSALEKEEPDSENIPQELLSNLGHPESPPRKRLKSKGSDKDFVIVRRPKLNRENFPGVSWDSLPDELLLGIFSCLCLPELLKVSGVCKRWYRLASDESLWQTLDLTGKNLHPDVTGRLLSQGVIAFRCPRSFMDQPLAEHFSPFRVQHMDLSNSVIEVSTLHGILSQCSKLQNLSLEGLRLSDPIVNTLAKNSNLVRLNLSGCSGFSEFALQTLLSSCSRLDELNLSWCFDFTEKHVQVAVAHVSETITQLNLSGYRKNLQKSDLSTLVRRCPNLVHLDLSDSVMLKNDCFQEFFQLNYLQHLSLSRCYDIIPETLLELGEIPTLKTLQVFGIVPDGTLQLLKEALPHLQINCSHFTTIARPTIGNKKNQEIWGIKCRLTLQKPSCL

The term Cmax denotes the maximum level reached in the sampled fluid or tissue. On to `CCc1cc2c(=O)c(-c3nc4ccccc4s3)coc2c(CN2CCCCC2)c1O` [compound #25, 3-(1,3-benzothiazol-2-yl)-6-ethyl-7-hydroxy-8-(1-piperidinylmethyl)-4H-chromen-4-one], for which the “prostate tumor growth in vivo” value in the data set on PC3 xenograft tumors (IP injection) was “potent effect”. In the data set with PC3 xenograft tumors (histological analysis), the “p27, p21, apoptosis, Akt activation and Glut1 in prostate tumor tissues” value is “induced expression of p27 and p21, apoptosis, and suppressed Akt activation and Glut1 expression”. The cellular senescence result in data set [1] was “triggered cellular senescence”. The “time of maximum levels in blood” value in data set [2] (IP administration) came out at 1 h. Further, the “share of compound maintained in blood” value in data set [2] (for 6 h) is recorded as “up to 70%”. In addition, the concentration at 24 h is 126 ± 48 ng/mL in data set [2] (nude, mouse, blood, intraperitoneal, 24 h after administration, read-out: terminal concentration in blood) and around 1160 ng/mL in data set [2] (nude, mouse, tumor, intraperitoneal, 24 h after initial administration, read-out: concentration remaining in tumor tissues). This molecule also registered a Cmax in data set [2] (nude, mouse, blood, IP administration) of 1430 ± 1180 ng/mL. The concentration at 1 h in data set [2] (nude, mouse, tumor, intraperitoneal, within 1 h, read-out: concentration in tumors) was found to be 4790 ± 1970 ng/g. Besides, the “disruption of Skp2-Skp1 interaction” value in data set [3] (5 μM) was “completely disrupt Skp2-Skp1 interaction”. In addition, the “interaction between WT Skp2 and Skp1” value in data set [3] (WT Skp2, FIG. 2D) was “prevented the interaction between WT Skp2 and Skp1”. Besides, the “Normalized w/ vehicle treatment” value in data set [3] (amount of intact Skp1/Skp2 remaining after treatment, quantified on western blot/images) worked out at 10%. In addition, in the data set on PC-3 cells (PC-3), the cell viability result was “potent effects on cell viability”. In the data set with PC-3 cells (Skp2-knockdown prostate cancer cells), the “viability upon Skp2 silencing” value is “inhibitory effect is compromised”. In addition, in the data set on PC-3 cells (control-knockdown prostate cancer cells), the “viability of control-knockdown cells” value was “potent inhibitory effect”. In addition, the “cell viability with ectopic Skp2 Trp97Ala or Asp98Ala” value with PC-3 cells (ectopic expression of Skp2 mutants) is “attenuated the inhibitory effect”.
